Experimental data published in US20250281453A1, “COMBINATION THERAPIES COMPRISING QTX125” (QUIMATRYX, S.L., priority 2022, published 2025).

Tests used:
[1] = tested on: Hep-G2 hepatic cancer cells; experiment: QTX125-containing combination therapy, hexosaminidase cell viability; assay type: cell-based; settings: for combination index (C.I): Hep-G2; for EC50: Homo sapiens, HepG2, Hep-G2
Experimental: To assess the oncolytic efficacy of QTX125-containing combination therapies in vitro, colonic, pancreatic, hepatic and ovarian tumour cells were administered sorafenib, gemcitabine or bortezomib at EC25, EC50 and EC75 doses. QTX125 was co-administered in order to produce a dose response curve.
To prepare cells for viability assays, cells were transferred into 96 well tissue culture plates (Cultek), and resuspended in 100 µL at the following densities: 10,000 cells/well (Hep-G2 and MiaPaCa-2), 5000 cells/well (Panc-1 and SK-OV-3) or 3000 cells/well (HCT-116). Following 24 hours of incubation, media was removed and replaced with 100 µL media spiked with QTX125 and the test chemotherapeutic agents. Stock solutions for the agents used in this study are shown below in Table 1. Cells were incubated for a further 72 hours before cell viability was assessed using both ALAMAR® and hexosaminidase assays.
For the hexosaminidase assay, media containing QTX125 and the test chemotherapeutic agents was removed, and cells were washed once with PBS. 60 μL of substrate solution (containing: 7.5 mM p-nitrophenol-N-acetyl-beta-D-glucosamide [Sigma N-9376], 0.1 M sodium citrate, pH 5.0 and 0.25% Triton X-100) was added to each well and cells were incubated at 37° C. for at least 1 hour. Incubating cells in this manner causes the substrate solution to become bright yellow, at which point 90 μL of developer solution (containing 50 mM Glycine pH 10.4 and 5 mM EDTA) was added to each well. Absorbance at 410 nm was recorded using a plate reader.
Control values were normalised to 100% and percentage (%) viability was calculated. Data were used to plot log dose-response curves using a sigmoid dose-response (variable slope) equation. EC50 values were obtained using Equation 1, where ‘X’ is the logarithmic concentration; ‘Y’ is the response output and it is assumed that Y starts at bottom of the graph and reaches the top with an overall sigmoid shape.
Cls were obtained using Equation 2, where (Dm) 1 is the ECx concentration of QTX125 and (D) 1 is the ECx concentration of QTX125 in the presence of sorafenib, gemcitabine or bortezomib.
In order to assess the oncolytic efficacy of QTX125-containing combination therapies, monotherapy EC25, EC50 and EC75 doses for sorafenib, gemcitabine and bortezomib were calculated (as per Experiment 3) and administered to wells at these fixed concentrations. QTX125 was co-administered at a range of concentrations, in order to plot a dose-response curve such that the EC50 dose of QTX125 could be calculated in the presence of sorafenib/gemcitabine/bortezomib. QTX125 was administered to cells at a starting high-dose, and a 1:1 dilution was completed thereafter. In this part of the study, only the hexosaminidase assay was employed to assess cell viability following treatment with QTX125-containing combination therapies.
It should be noted that it was not possible to determine the appropriate concentrations for gemcitabine in all cell lines tested. In cells resistant to gemcitabine, nominal concentrations were used in place of EC25, EC50 and EC75 doses (e.g., nominal doses of 1, 10 and 100 µM were used in Panc-1 and Hep-G2 cells).

[2] = Genotoxicity (clastogenicity, aneugenicity); settings: unlike other histone deacetylase inhibitors
[3] = Pharmacokinetic properties; assay type: in vivo; settings: compared with other histone deacetylase inhibitors
[4] = tested on: mantle cell lymphoma, lung cancer and pancreatic cancer xenografts; settings: lung cancer and pancreatic cancer xenograft murine models; cited from earlier work
[5] = tested on: multiple sclerosis mice models; settings: two different multiple sclerosis mice models; cited from earlier work
[6] = + bortezomib at EC25 dose (0.014 μM)
[7] = + bortezomib at EC50 dose (0.016 μM)
[8] = + bortezomib at EC75 dose (0.026 μM)
[9] = + gemcitabine at EC25, nominal dose 1 μM
[10] = + gemcitabine at EC50, nominal dose 10 μM
[11] = + gemcitabine at EC75, nominal dose 100 μM
[12] = + sorafenib at EC25 dose (0.9 μM)
[13] = + sorafenib at EC50 dose (2.5 μM)
[14] = + sorafenib at EC75 dose (6.4 μM)

For O=C(NO)c1ccc(CNC(=O)c2[nH]c(-c3ccc(O)cc3)cc2-c2ccoc2)cc1 [QTX125, 3-(3-Furyl)-N-{4-[(hydroxyamino)carbonyl]benzyl}-5-(4-hydroxyphenyl)-1 Hpyrrole-2-carboxamide], the “combination index (C.I)” value [1, 6] was 0.4 arbitrary units, the “combination index (C.I)” value [1, 7] was 0.2 arbitrary units and the “combination index (C.I)” value [1, 8] was 0.2 arbitrary units. The “combination index (C.I)” value [1, 9] was 0.6 arbitrary units, the “combination index (C.I)” value [1, 10] was 0.2 arbitrary units and the “combination index (C.I)” value [1, 11] was 0.05 arbitrary units. The “combination index (C.I)” value [1, 12] was 0.5 arbitrary units, the “combination index (C.I)” value [1, 13] was 0.4 arbitrary units and the “combination index (C.I)” value [1, 14] was 0.5 arbitrary units. It also gave an EC50 [1, 6] of 237 nM, an EC50 [1, 7] of 128 nM and an EC50 [1, 8] of 91 nM. The EC50 [1, 9] was 744 nM, the EC50 [1, 10] was 198 nM and the EC50 [1, 11] was 56.1 nM. It also gave an EC50 [1, 12] of 87.9 nM, an EC50 [1, 13] of 74.9 nM and an EC50 [1, 14] of 87.2 nM. For the same compound, the EC50 ([1]; no second agent (control of Table 5.3.1)) was 189 nM, the EC50 ([1]; no second agent (control of Table 5.3.2)) was 1200 nM and the EC50 ([1]; no second agent (control of Table 5.3.3)) was 544 nM. The “genotoxicity, in particular clastogenicity or aneugenicity” value [2] was “no evidence of genotoxicity”, the “pharmacokinetic properties (half-lives and distribution volumes)” value [3] was “higher half-lives and distribution volumes” and the antitumoral efficacy [4] was “high antitumoral efficacy”. For the same compound, the “efficacy in multiple sclerosis mice models” value [5] was “high efficacy”.
